In the supplement of paper PMC10627819:

Tests used:
S. aureus DSM 20231 [1] = experiment: fitness (endpoint OD595 vs no drug) (fraction); higher = more growth
Summary of the method: (§1)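 At 37 °C, bacteria in TSB, LB Lennox or CY were grown in 384-well plates from a starting OD595 of 0.01. OD595 was measured every 30 min for 14 h, with the first reading used as background. Fitness is the optical density at the switch to stationary phase as a fraction of the robust mean of no-drug control wells, capped at 1.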

S. aureus Newman [2] = experiment: as above
Summary of the method: as §1

S. pneumoniae D39V [3] = experiment: as above
Summary of the method: as §1

B. subtilis 168 = experiment: Bliss interaction score (quartile over a dose matrix) (fitness difference); higher = more antagonism (negative = synergy)
Summary of the method: (§2)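 Growth was read as OD595 when cultures entered stationary phase, and each value was divided by the plate's robust no-drug mean and capped at 1. This normalised ratio is the fitness value, and fitness for each single drug came from the combination data. The Bliss score subtracts the expected fitness, taken as the product, from the observed fitness and is given as quartiles across technical, biological and donor/recipient replicates.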

S. aureus DSM 20231 [4] = experiment: as above
Summary of the method: as §2

S. aureus Newman [5] = experiment: as above
Summary of the method: as §2

S. pneumoniae D39V [6] = experiment: as above
Summary of the method: as §2
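Throughout, for Bliss interaction score (quartile over a dose matrix): first quartile when negative (synergy) and third quartile when positive (antagonism).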
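Throughout, for fitness (endpoint OD595 vs no drug): OD595 on entry to stationary phase over no-drug wells; at most 1.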

CC1(C)S[C@@H]2[C@H](NC(=O)[C@H](N)c3ccc(O)cc3)C(=O)N2[C@H]1C(=O)O [Amoxicillin] + Cn1nnc(-c2ccc(-c3ccc(N4C[C@H](CO)OC4=O)cc3F)cn2)n1 [Tedizolid]
fitness
Conditions | partner 0.03125 µg/mL | partner 0.0625 µg/mL | partner 0.125 µg/mL | partner 0.25 µg/mL | partner 0.5 µg/mL
S. aureus DSM 20231 [1], first compound 0.0625 µg/mL | – | 0.65 | 0.395 | 0.151 | –
S. aureus DSM 20231 [1], first compound 0.125 µg/mL | – | – | 0.184 | 0.0385 | –
S. aureus DSM 20231 [1], first compound 0.25 µg/mL | – | 0.0658 | 0.0466 | 0.0313 | –
S. aureus Newman [2], first compound 0.0625 µg/mL | – | 0.853 | – | – | –
S. aureus Newman [2], first compound 0.125 µg/mL | – | 0.807 | – | – | –
S. pneumoniae D39V [3], first compound 0.0008 µg/mL | 0.961 | 0.966 | 0.781 | – | –
S. pneumoniae D39V [3], first compound 0.0015 µg/mL | 0.949 | 0.94 | 0.788 | 0.692 | 0.306
S. pneumoniae D39V [3], first compound 0.003 µg/mL | 0.96 | 0.933 | 0.759 | 0.691 | 0.339

fitness, one replicate
Conditions | partner 0.0625 µg/mL | partner 0.125 µg/mL | partner 0.25 µg/mL | partner 0.5 µg/mL
S. aureus DSM 20231 [1], first compound 0.5 µg/mL | 0.015 | 0.0045 | 0.0057 | –
S. pneumoniae D39V [3], first compound 0.0008 µg/mL | – | – | 0.7 | 0.335
S. pneumoniae D39V [3], first compound 0.006 µg/mL | – | 0.562 | 0.462 | 0.283

Conditions | Bliss interaction score
B. subtilis 168 | -0.0425
S. aureus DSM 20231 [4] | -0.0515
S. aureus Newman [5] | -0.0673
S. pneumoniae D39V [6] | 0.175

CC1(C)S[C@@H]2[C@H](NC(=O)[C@H](N)c3ccc(O)cc3)C(=O)N2[C@H]1C(=O)O [Amoxicillin] + O=C(O[C@@H]1Cc2c(O)cc(O)cc2O[C@@H]1c1cc(O)c(O)c(O)c1)c1cc(O)c(O)c(O)c1 [EGCG]
fitness
Conditions | partner 12.5 µg/mL | partner 25 µg/mL | partner 50 µg/mL
S. aureus DSM 20231 [1], first compound 0.0625 µg/mL | 0.528 | 0.516 | 0.513
S. aureus DSM 20231 [1], first compound 0.125 µg/mL | 0.363 | 0.411 | 0.376
S. aureus DSM 20231 [1], first compound 0.25 µg/mL | 0.171 | 0.0387 | 0.108
S. aureus DSM 20231 [1], first compound 0.5 µg/mL | 0.0001 | 0.0081 | 0
S. aureus Newman [2], first compound 0.0625 µg/mL | 0.751 | 0.714 | 0.638
S. aureus Newman [2], first compound 0.125 µg/mL | 0.757 | 0.741 | 0.681
S. aureus Newman [2], first compound 0.25 µg/mL | 0.729 | 0.751 | –
S. pneumoniae D39V [3], first compound 0.0008 µg/mL | 0.969 | 0.911 | 0.984
S. pneumoniae D39V [3], first compound 0.0015 µg/mL | 0.92 | 0.922 | –
S. pneumoniae D39V [3], first compound 0.003 µg/mL | 0.851 | 0.912 | 0.894

S. pneumoniae D39V [3], first compound 0.006 µg/mL, one replicate
Conditions | fitness
partner 12.5 µg/mL | 0.412
partner 25 µg/mL | 0.545
partner 50 µg/mL | 0.601

Conditions | Bliss interaction score
B. subtilis 168 | 0.0413
S. aureus DSM 20231 [4] | 0.0606
S. aureus Newman [5] | 0.0679
S. pneumoniae D39V [6] | -0.0544
